#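 How tested: cells in 96-well plates exposed to compound for 48 hours at five concentrations. GI50 = concentration required for 50% inhibition of growth. Definition used: TGI = concentration required for complete inhibition of growth.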
# What was measured:
# Test in all cases: DTP human tumour cell line panel, 48 h
# OVCAR-8 ovarian = test system: OVCAR-8 ovarian
# NCI-H460 lung = test system: NCI-H460 lung
# SF-268 CNS = test system: SF-268 CNS
# COLO 205 colon = test system: COLO 205 colon
# HS 578T breast = test system: HS 578T breast
# KM12 colon = test system: KM12 colon
# MDA-MB-231 breast = test system: MDA-MB-231 breast
# A498 renal = test system: A498 renal
# UO-31 renal = test system: UO-31 renal
# 786-0 renal = test system: 786-0 renal
# HCT-116 colon = test system: HCT-116 colon
# SK-MEL-28 melanoma = test system: SK-MEL-28 melanoma
# HL-60(TB) leukemia = test system: HL-60(TB) leukemia
# HCC-2998 colon = test system: HCC-2998 colon
# SK-MEL-5 melanoma = test system: SK-MEL-5 melanoma
# ACHN renal = test system: ACHN renal
# RPMI-8226 leukemia = test system: RPMI-8226 leukemia
# A549 NSCLC = test system: A549 NSCLC
# DU-145 prostate = test system: DU-145 prostate
# U251 CNS = test system: U251 CNS
# NCI/ADR-RES ovarian = test system: NCI/ADR-RES ovarian
# MOLT-4 leukemia = test system: MOLT-4 leukemia
# PC-3 prostate = test system: PC-3 prostate
# HOP-62 NSCLC = test system: HOP-62 NSCLC
# BT-549 breast = test system: BT-549 breast
# MCF7 breast = test system: MCF7 breast
# NCI-H226 lung = test system: NCI-H226 lung
# TK-10 renal = test system: TK-10 renal
# SK-MEL-2 melanoma = test system: SK-MEL-2 melanoma
# NCI-H522 lung = test system: NCI-H522 lung
# OVCAR-3 ovarian = test system: OVCAR-3 ovarian
# MALME-3M melanoma = test system: MALME-3M melanoma
# K-562 leukemia = test system: K-562 leukemia
# HCT-15 colon = test system: HCT-15 colon
# SK-OV-3 ovarian = test system: SK-OV-3 ovarian
# LOX IMVI melanoma = test system: LOX IMVI melanoma
# HT29 colon = test system: HT29 colon
# CCRF-CEM leukemia = test system: CCRF-CEM leukemia
# OVCAR-4 ovarian = test system: OVCAR-4 ovarian
# UACC-257 melanoma = test system: UACC-257 melanoma
# HOP-92 NSCLC = test system: HOP-92 NSCLC
# SN12C renal = test system: SN12C renal
# SNB-75 CNS = test system: SNB-75 CNS
# M14 melanoma = test system: M14 melanoma
# SW-620 colon = test system: SW-620 colon
# NCI-H23 lung = test system: NCI-H23 lung
# IGROV1 ovarian = test system: IGROV1 ovarian
# SF-539 CNS = test system: SF-539 CNS
# SR leukemia = test system: SR leukemia
# SF-295 CNS = test system: SF-295 CNS
# RXF 393 renal = test system: RXF 393 renal
# OVCAR-5 ovarian = test system: OVCAR-5 ovarian
# UACC-62 melanoma = test system: UACC-62 melanoma
# T-47D breast = test system: T-47D breast
# SNB-19 CNS = test system: SNB-19 CNS
# MDA-MB-435 = test system: MDA-MB-435
compound,measurement,setting,value
CC(C)CNC(=O)c1ccc(NC(=O)N(CC(C)C)C(=O)c2ccc(N)c(OCCCN)c2)c(OCCCN=C(N)N)c1,GI50,OVCAR-8 ovarian,> 62.5 µM
same,TGI,OVCAR-8 ovarian,> 62.5 µM
same,GI50,NCI-H460 lung,> 62.5 µM
same,TGI,NCI-H460 lung,> 62.5 µM
same,GI50,SF-268 CNS,> 62.5 µM
same,TGI,SF-268 CNS,> 62.5 µM
same,GI50,COLO 205 colon,> 62.5 µM
same,TGI,COLO 205 colon,> 62.5 µM
same,GI50,HS 578T breast,> 62.5 µM
same,TGI,HS 578T breast,> 62.5 µM
same,GI50,KM12 colon,> 62.5 µM
same,TGI,KM12 colon,> 62.5 µM
same,GI50,MDA-MB-231 breast,> 62.5 µM
same,TGI,MDA-MB-231 breast,> 62.5 µM
same,GI50,A498 renal,> 62.5 µM
same,TGI,A498 renal,> 62.5 µM
same,GI50,UO-31 renal,> 62.5 µM
same,TGI,UO-31 renal,> 62.5 µM
same,GI50,786-0 renal,> 62.5 µM
same,TGI,786-0 renal,> 62.5 µM
same,GI50,HCT-116 colon,> 62.5 µM
same,TGI,HCT-116 colon,> 62.5 µM
same,GI50,SK-MEL-28 melanoma,> 62.5 µM
same,TGI,SK-MEL-28 melanoma,> 62.5 µM
same,GI50,HL-60(TB) leukemia,> 62.5 µM
same,TGI,HL-60(TB) leukemia,> 62.5 µM
same,GI50,HCC-2998 colon,> 62.5 µM
same,TGI,HCC-2998 colon,> 62.5 µM
same,GI50,SK-MEL-5 melanoma,> 62.5 µM
same,TGI,SK-MEL-5 melanoma,> 62.5 µM
same,GI50,ACHN renal,> 62.5 µM
same,TGI,ACHN renal,> 62.5 µM
same,GI50,RPMI-8226 leukemia,> 62.5 µM
same,TGI,RPMI-8226 leukemia,> 62.5 µM
same,GI50,A549 NSCLC,> 62.5 µM
same,TGI,A549 NSCLC,> 62.5 µM
same,GI50,DU-145 prostate,> 62.5 µM
same,TGI,DU-145 prostate,> 62.5 µM
same,GI50,U251 CNS,> 62.5 µM
same,TGI,U251 CNS,> 62.5 µM
same,GI50,NCI/ADR-RES ovarian,> 62.5 µM
same,TGI,NCI/ADR-RES ovarian,> 62.5 µM
same,GI50,MOLT-4 leukemia,> 62.5 µM
same,TGI,MOLT-4 leukemia,> 62.5 µM
same,GI50,PC-3 prostate,> 62.5 µM
same,TGI,PC-3 prostate,> 62.5 µM
same,GI50,HOP-62 NSCLC,> 62.5 µM
same,TGI,HOP-62 NSCLC,> 62.5 µM
same,GI50,BT-549 breast,> 62.5 µM
same,TGI,BT-549 breast,> 62.5 µM
same,GI50,MCF7 breast,> 62.5 µM
same,TGI,MCF7 breast,> 62.5 µM
same,GI50,NCI-H226 lung,> 62.5 µM
same,TGI,NCI-H226 lung,> 62.5 µM
same,GI50,TK-10 renal,> 62.5 µM
same,TGI,TK-10 renal,> 62.5 µM
same,GI50,SK-MEL-2 melanoma,> 62.5 µM
same,TGI,SK-MEL-2 melanoma,> 62.5 µM
same,GI50,NCI-H522 lung,> 62.5 µM
same,TGI,NCI-H522 lung,> 62.5 µM
same,GI50,OVCAR-3 ovarian,> 62.5 µM
same,TGI,OVCAR-3 ovarian,> 62.5 µM
same,GI50,MALME-3M melanoma,> 62.5 µM
same,TGI,MALME-3M melanoma,> 62.5 µM
same,GI50,K-562 leukemia,> 62.5 µM
same,TGI,K-562 leukemia,> 62.5 µM
same,GI50,HCT-15 colon,> 62.5 µM
same,TGI,HCT-15 colon,> 62.5 µM
same,GI50,SK-OV-3 ovarian,> 62.5 µM
same,TGI,SK-OV-3 ovarian,> 62.5 µM
same,GI50,LOX IMVI melanoma,> 62.5 µM
same,TGI,LOX IMVI melanoma,> 62.5 µM
same,GI50,HT29 colon,> 62.5 µM
same,TGI,HT29 colon,> 62.5 µM
same,GI50,CCRF-CEM leukemia,> 62.5 µM
same,TGI,CCRF-CEM leukemia,> 62.5 µM
same,GI50,OVCAR-4 ovarian,> 62.5 µM
same,TGI,OVCAR-4 ovarian,> 62.5 µM
same,GI50,UACC-257 melanoma,> 62.5 µM
same,TGI,UACC-257 melanoma,> 62.5 µM
same,GI50,HOP-92 NSCLC,> 62.5 µM
same,TGI,HOP-92 NSCLC,> 62.5 µM
same,GI50,SN12C renal,> 62.5 µM
same,TGI,SN12C renal,> 62.5 µM
same,GI50,SNB-75 CNS,> 62.5 µM
same,TGI,SNB-75 CNS,> 62.5 µM
same,GI50,M14 melanoma,> 62.5 µM
same,TGI,M14 melanoma,> 62.5 µM
same,GI50,SW-620 colon,> 62.5 µM
same,TGI,SW-620 colon,> 62.5 µM
same,GI50,NCI-H23 lung,> 62.5 µM
same,TGI,NCI-H23 lung,> 62.5 µM
same,GI50,IGROV1 ovarian,> 62.5 µM
same,TGI,IGROV1 ovarian,> 62.5 µM
same,GI50,SF-539 CNS,> 62.5 µM
same,TGI,SF-539 CNS,> 62.5 µM
same,GI50,SR leukemia,> 62.5 µM
same,TGI,SR leukemia,> 62.5 µM
same,GI50,SF-295 CNS,> 62.5 µM
same,TGI,SF-295 CNS,> 62.5 µM
same,GI50,RXF 393 renal,> 62.5 µM
same,TGI,RXF 393 renal,> 62.5 µM
same,GI50,OVCAR-5 ovarian,> 62.5 µM
same,TGI,OVCAR-5 ovarian,> 62.5 µM
same,GI50,UACC-62 melanoma,> 62.5 µM
same,TGI,UACC-62 melanoma,> 62.5 µM
same,GI50,T-47D breast,> 62.5 µM
same,TGI,T-47D breast,> 62.5 µM
same,GI50,SNB-19 CNS,> 62.5 µM
same,TGI,SNB-19 CNS,> 62.5 µM
same,GI50,MDA-MB-435,> 62.5 µM
same,TGI,MDA-MB-435,> 62.5 µM
